Laboratory results from US20030236288A1, “Use of substituted 3-phenyl-5-alkoxy-3H-(1,3,4)-oxadizol-2-ones for inhibiting pancreatic lipase” (priority 2002, published 2003).

What was measured:
pancreatic lipase (PL) = molecular target: T1, pancreatic lipase (PL) (Sus scrofa, UniProt P00591); test: Pancreatic lipase inhibition assay (release of radiolabeled oleate from glycerol tri[9,10(n)-3H]oleate/tripalmitin substrate); type: biochemical; conditions: enriched lipase preparation from porcine pancreas; 30° C., 30 min; up to 8 concentrations
T1 construct: Enriched preparation from porcine pancreas; purchased Sigma L-0382; host or cells: porcine pancreas (tissue preparation)
T1 sequence (P00591 1-450): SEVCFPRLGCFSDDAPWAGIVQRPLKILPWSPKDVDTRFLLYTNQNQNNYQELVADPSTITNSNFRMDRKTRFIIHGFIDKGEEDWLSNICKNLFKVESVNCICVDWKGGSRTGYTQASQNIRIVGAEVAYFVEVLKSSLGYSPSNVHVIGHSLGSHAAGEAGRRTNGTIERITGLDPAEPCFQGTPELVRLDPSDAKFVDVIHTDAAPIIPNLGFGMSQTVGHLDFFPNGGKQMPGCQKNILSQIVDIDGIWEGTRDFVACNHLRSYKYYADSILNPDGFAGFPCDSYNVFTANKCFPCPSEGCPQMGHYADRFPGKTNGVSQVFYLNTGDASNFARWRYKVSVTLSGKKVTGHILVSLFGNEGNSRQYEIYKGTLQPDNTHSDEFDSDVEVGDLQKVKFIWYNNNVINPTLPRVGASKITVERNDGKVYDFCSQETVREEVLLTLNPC
Description: The activity of the compounds was assayed as follows:
1. Preparation of the substrate:
80 μL of tripalmitin (85 mM in chloroform) are mixed with 5 μL of glycerol tri[9,10(n)-^3H]oleate (5 mCi/mL in toluene) in a 12 mL polypropylene vessel. Evaporation in a rotary evaporator (50° C.) and addition of 4 mL of 200 mM Tris/HCl (pH 7.6), 0.8% TX-100 are followed by ultrasound treatment of the mixture (Branson B-12 sonifier, output level 4, 3×2 min with 1 min intervals on ice) until a homogeneous milky suspension is produced.
Lipase buffer: 80 mM Tris/HCl (pH 7.6), 600 mM NaCl, 8 mM CaCl2, 8 mM benzamidine, 2 mM Pefabloc (Roche Biochemicals) (add the inhibitors only on the day of the assay)
Pancreatic lipase: Enriched preparation from porcine pancreas (Sigma order No. L-0382) dissolved in lipase buffer (100 000 units/500 μL)
5 μL of test substance (in 100% DMSO) or DMSO (control) are mixed with 10 μL of substrate and 5 μL of lipase (in this sequence) and incubated at 30° C. (Eppendorf Thermomixer, 350 min^−1) for 30 min. After addition of 325 μL of methanol/chloroform/n-heptane (10/9/7) and 105 μl of 0.1 M K2CO3, 0.1 M H3BO3 (pH 10.5 adjusted with 1 M KOH) and vigorous mixing, the phases are separated by centrifugation (8000 rpm, Eppendorf centrifuge, 4° C.). 140 μL portions of the aqueous supernatant (contains the liberated radiolabeled oleate; 70% recovery) are transferred into 20 mL scintillation vials and mixed with 6 mL of scintillation cocktail (Beckman Ready Safe). After vigorously mixing and incubating at room temperature for 2 h, the radioactivity is measured in a liquid scintillation counter (Beckman, L8008, tritium channel with quench curve, measurement time 20 min).
Substances are routinely tested in each concentration in three independent incubation mixtures each with duplicate determination after phase separation (SD<0.02). Background values (reaction under the same conditions but without lipase) are subtracted from all values (corresponds predominantly to the content of glycerol trioleate or free oleate in the substrate preparation in the aqueous phase, <5% of the radioactivity employed). The inhibition of the pancreatic lipase enzymatic activity by a test substance is determined by comparison with an uninhibited control reaction (presence of lipase=0% inhibition; absence of lipase 100% inhibition in each case after background correction). The IC50 is calculated from an inhibition plot with up to 8 concentrations of the test substance. The software package GRAPHIT (Elsevier-BIOSOFT) is used for curve fitting and IC50 determination.

melting point | IC50 (pancreatic lipase (PL)) | SMILES
83 °C |  | COc1nn(-c2ccc(Oc3ccccc3)cc2)c(=O)o1
164 °C |  | COc1nn(-c2ccc(S(=O)(=O)N3CCOCC3)cc2)c(=O)o1 [Example 208, 3-(4-Morpholinosulfonylphenyl)-5-methoxy-3H-(1,3,4)-oxadiazol-2-one]
52 °C |  | COc1nn(-c2ccc(OC(F)(F)F)cc2)c(=O)o1 [Example 209, 3-(4-Trifluoromethoxyphenyl)-5-methoxy-3H-(1,3,4)-oxad iazol-2-one]
63 °C | 700 nM | CCOc1nn(-c2ccc(OC(F)(F)F)cc2)c(=O)o1 [Example 210, 3-(4-Trifluoromethoxyphenyl)-5-ethoxy-3H-(1,3,4)-oxad iazol-2-one]
 | 700 nM | CCOc1nn(-c2cccc(OC(F)(F)F)c2)c(=O)o1 [Example 218, 3-(3-Trifluoromethoxyphenyl)-5-ethoxy-3H-(1,3,4)-oxad iazol-2-one]
 | 1800 nM | CC(C)Oc1nn(-c2cccc(OC(F)(F)F)c2)c(=O)o1 [Example 220, 3-(3-Trifluoromethoxyphenyl)-5-isopropoxy-3H-(1,3,4)-oxadiazol-2-one]
89 °C |  | COc1nn(-c2cccc(Oc3ccccc3)c2)c(=O)o1 [Example 232, 3-(3-Phenoxyphenyl)-5-methoxy-3H-(1,3,4)-oxad iazol-2-one]
> 260 °C (dec.) |  | COc1nn(-c2ccc(-c3ccccc3)cc2)c(=O)o1 [Example 238, 3-(4-Phenylphenyl)-5-methoxy-3H-(1,3,4)-oxadiazol-2-one]

Further lines, the molecule ahead of its results:

SMILES | melting point | IC50 (pancreatic lipase (PL))
COc1nn(-c2ccc(NC(=O)c3ccc(Cl)cc3)c(OCc3ccc(F)cc3)c2)c(=O)o1 [Example 46, 5-Methoxy-3-(4-(4-chlorobenzoylamino)-3-(4-fluorobenzyloxy)phenyl)-3H-(1,3,4)-oxadiazol-2-one] | 167 °C | 
COc1nn(-c2cccc(NC(=O)Nc3ccccn3)c2)c(=O)o1 [Example 59, 5-Methoxy-3-(3-(pyrid-2-yl)aminocarbonylaminophenyl)-3H-(1,3,4)-oxadiazol-2-one] | 81 °C | 
COc1nn(-c2ccc(NC(=O)c3ccc(C(F)(F)F)cc3)c(OCc3ccccc3)c2)c(=O)o1 [Example 86, 5-Methoxy-3-(3-benzyloxy-4-(4-trifluoromethylbenzoylamino)phenyl)-3H-(1,3,4)-oxadiazol-2-one] |  | 1500 nM
CCCCOc1nn(-c2ccc(OC(F)(F)F)cc2)c(=O)o1 [Example 212, 3-(4-Trifluoromethoxyphenyl)-5-butoxy-3H-(1,3,4)-oxadiazol-2-one] |  | 500 nM
O=c1oc(OCc2ccccc2)nn1-c1ccc(OC(F)(F)F)cc1 [Example 213, 3-(4-Trifluoromethoxyphenyl)-5-benzyloxy-3H-(1,3,4)-oxad iazol-2-one] |  | 500 nM
COc1nn(-c2ccc(S(=O)(=O)NC3CC(C)CC(C)(C)C3)cc2)c(=O)o1 (centres unmarked) [Example 214, 3-(4-(3,3,5-Trimethylcyclohexylaminosulfonyl)phenyl)-5-methoxy-3H-(1,3,4)-oxadiazol-2-one] | 164 °C | 
CCOc1nn(-c2ccc(OC3CC(C)(C)CC(C)(C)C3)cc2)c(=O)o1 [Example 215, 3-(4-(3,3,5,5-Tetramethylcyclohexyloxy)phenyl)-5-ethoxy-3H-(1,3,4)-oxad iazol-2-one] | 111 °C | 
COc1nn(-c2cccc(OCc3ccccc3)c2)c(=O)o1 [Example 216, 3-(3-Benzyloxyphenyl)-5-methoxy-3H-(1,3,4)-oxadiazol-2-one] |  | 800 nM
COc1nn(-c2ccc(Oc3ccc(Cl)cc3)cc2)c(=O)o1 [Example 229, 3-(4-(4-Chlorophenoxy)phenyl)-5-methoxy-3H-(1,3,4)-oxad iazol-2-one] | 68 °C | 600 nM
CCOc1nn(-c2cccc(Oc3ccccc3)c2)c(=O)o1 [Example 233, 3-(3-Phenoxyphenyl)-5-ethoxy-3H-(1,3,4)-oxadiazol-2-one] | 50 °C | 
COc1nn(-c2cccc(OC3CC(C)(C)CC(C)(C)C3)c2)c(=O)o1 [Example 237, 3-(3-(3,3,5,5-Tetramethylcyclohexyloxy)phenyl)-5-methoxy-3H-(1,3,4)-oxadiazol-2-one] | 68 °C | 
COc1nn(-c2cccc(COc3cccc(C)c3)c2)c(=O)o1 [Example 239, 3-(3-(3-Methylphenoxymethyl)phenyl)-5-methoxy-3H-(1,3,4)-oxadiazol-2-one] | 47 °C | 
COc1nn(-c2cccc(-c3ccccc3)c2)c(=O)o1 [Example 240, 3-(3-Phenylphenyl)-5-methoxy-3H-(1,3,4)-oxadiazol-2-one] | 80 °C | 
